Experimental data taken from paper PMC7749516, “Safety and nonclinical and clinical pharmacokinetics of PC945, a novel inhaled triazole antifungal agent” (Pharmacology Research & Perspectives, 2020).
≈ marks a conversion by molar mass, not a printed value. Where “and” joins values, the source holds several entries; their conditions need not be identical. Identical values can stand only once.

Assays:
[1] = First-in-human safety and tolerability (adverse events, spirometry); type: in vivo; details: for No. of subjects with treatment‐emergent adverse events attributed to study drug / Subjects with drug-related adverse event: Cough / Subjects with drug-related adverse event: Diarrhea / Subjects with drug-related adverse event: Dizziness / Subjects with drug-related adverse event: Fatigue / Subjects with drug-related adverse event: Feces soft / Subjects with drug-related adverse event: Headache / Subjects with drug-related adverse event: Lethargy / Subjects with drug-related adverse event: Muscle spasms / Subjects with drug-related adverse event: Nausea / Subjects with drug-related adverse event: Productive cough / Subjects with drug-related adverse event: Throat tightness: N = 6
Description: This PC945 first‐in‐human clinical trial (ClinicalTrials.gov Identifier: NCT02715570) was a two‐part randomized, placebo‐controlled study to assess the safety and tolerability of PC945 in both healthy subjects and subjects with mild asthma, conducted at Parexel Early Phase Clinical Unit (Harrow, UK). The study was considered single‐blind as the appearance of active and placebo doses were different, however, it was conducted in a double‐blind manner (employing separate dosing and assessment teams).
Part one consisted of a single dose escalation study (Cohort 1) and a repeat dose study (Cohort 2) of inhaled PC945 in healthy subjects. Part two comprised a single dose study of inhaled PC945 in subjects with mild asthma (Cohort 3). The doses selected were predicted to achieve target lung concentrations above the IC90/MIC90 for A. fumigatus (based on data from a range of in vitro and in vivo systems) throughout a 24‐hour period and with a suitable safety margin based on animal toxicology data.
Safety was evaluated based on assessments of adverse events, physical examination, vital signs, 12‐lead electrocardiogram, spirometry and clinical laboratory tests. The verbatim terms used to identify adverse events were coded using the Medical Dictionary for Regulatory Activities (version 20.1). All adverse events were mapped to system organ class and preferred term.
Spirometry parameters (FEV1 and FVC) were measured in all subjects to evaluate the local tolerability and potential for bronchospasm of PC945 in accordance with American Thoracic Society/European Respiratory Society guidelines. Predicted values were calculated using National Health and Nutrition Examination Survey reference equations. ^18 , ^19

A. fumigatus strains = tested on: A. fumigatus strains; design: method as in PMID 28223388; details: EUCAST method, 96 clinically isolated A. fumigatus strains; cited from earlier work
[2] = Toxicokinetics/toxicity in rats, daily 2-hour inhalation for 14 days (plasma); details: for Ro (accumulation ratio): AUC0‐24h (Day14)/AUC0‐24h (Day 1)
Description: Each dose was inhaled over a 2‐hour period once daily for 14 days.
Lower limit of quantification of the assay was 10 pg/mL for clinical samples and 100 pg/mL for rat and dog plasma samples.

[3] = Cohort 1 healthy, single dose 0.5 mg
[4] = Cohort 1 healthy, single dose 2 mg
[5] = Cohort 1 healthy, single dose 5 mg
[6] = Cohort 1 healthy, single dose 10 mg
[7] = Cohort 2 healthy, 5 mg once daily for 7 days
[8] = Cohort 3 mild asthma, single dose 5 mg
[9] = female rats, Day 14 of inhaled 2.0 mg/kg/day
[10] = female rats, Day 14 of inhaled 7.1 mg/kg/day
[11] = female rats, Day 14 of inhaled 16.6 mg/kg/day
[12] = female rats, single inhaled dose 2.0 mg/kg (Day 1)
[13] = female rats, single inhaled dose 7.1 mg/kg (Day 1)
[14] = female rats, single inhaled dose 16.6 mg/kg (Day 1)
[15] = male rats, Day 14 of inhaled 2.0 mg/kg/day
[16] = male rats, Day 14 of inhaled 7.1 mg/kg/day
[17] = male rats, Day 14 of inhaled 16.6 mg/kg/day
[18] = male rats, single inhaled dose 2.0 mg/kg (Day 1)
[19] = male rats, single inhaled dose 7.1 mg/kg (Day 1)
[20] = male rats, single inhaled dose 16.6 mg/kg (Day 1)

Cc1cc(N2CCN(c3ccc(C(=O)Nc4ccc(F)cc4)cc3)CC2)ccc1OC[C@@H]1CO[C@@](Cn2cncn2)(c2ccc(F)cc2F)C1 [PC945]
No. of subjects with treatment‐emergent adverse events attributed to study drug [1, 3]: 1 (16.67) n (%) | Subjects with drug-related adverse event: Cough [1, 3]: 0 n (%) | Subjects with drug-related adverse event: Diarrhea [1, 3]: 0 n (%) | Subjects with drug-related adverse event: Dizziness [1, 3]: 0 n (%) | Subjects with drug-related adverse event: Fatigue [1, 3]: 1 (16.67) n (%) | Subjects with drug-related adverse event: Feces soft [1, 3]: 0 n (%) | Subjects with drug-related adverse event: Headache [1, 3]: 0 n (%) | Subjects with drug-related adverse event: Lethargy [1, 3]: 0 n (%) | Subjects with drug-related adverse event: Muscle spasms [1, 3]: 0 n (%) | Subjects with drug-related adverse event: Nausea [1, 3]: 0 n (%) | Subjects with drug-related adverse event: Productive cough [1, 3]: 0 n (%) | Subjects with drug-related adverse event: Throat tightness [1, 3]: 0 n (%) | No. of subjects with treatment‐emergent adverse events attributed to study drug [1, 4]: 0 n (%) | Subjects with drug-related adverse event: Cough [1, 4]: 0 n (%) | Subjects with drug-related adverse event: Diarrhea [1, 4]: 0 n (%) | Subjects with drug-related adverse event: Dizziness [1, 4]: 0 n (%) | Subjects with drug-related adverse event: Fatigue [1, 4]: 0 n (%) | Subjects with drug-related adverse event: Feces soft [1, 4]: 0 n (%) | Subjects with drug-related adverse event: Headache [1, 4]: 0 n (%) | Subjects with drug-related adverse event: Lethargy [1, 4]: 0 n (%) | Subjects with drug-related adverse event: Muscle spasms [1, 4]: 0 n (%) | Subjects with drug-related adverse event: Nausea [1, 4]: 0 n (%) | Subjects with drug-related adverse event: Productive cough [1, 4]: 0 n (%) | Subjects with drug-related adverse event: Throat tightness [1, 4]: 0 n (%) | No. of subjects with treatment‐emergent adverse events attributed to study drug [1, 5]: 2 (33.33) n (%) | Subjects with drug-related adverse event: Cough [1, 5]: 0 n (%) | Subjects with drug-related adverse event: Diarrhea [1, 5]: 0 n (%) | Subjects with drug-related adverse event: Dizziness [1, 5]: 1 (16.67) n (%) | Subjects with drug-related adverse event: Fatigue [1, 5]: 0 n (%) | Subjects with drug-related adverse event: Feces soft [1, 5]: 1 (16.67) n (%) | Subjects with drug-related adverse event: Headache [1, 5]: 1 (16.67) n (%) | Subjects with drug-related adverse event: Lethargy [1, 5]: 1 (16.67) n (%) | Subjects with drug-related adverse event: Muscle spasms [1, 5]: 1 (16.67) n (%) | Subjects with drug-related adverse event: Nausea [1, 5]: 1 (16.67) n (%) | Subjects with drug-related adverse event: Productive cough [1, 5]: 0 n (%) | Subjects with drug-related adverse event: Throat tightness [1, 5]: 0 n (%) | No. of subjects with treatment‐emergent adverse events attributed to study drug [1, 6]: 2 (33.33) n (%) | Subjects with drug-related adverse event: Cough [1, 6]: 0 n (%) | Subjects with drug-related adverse event: Diarrhea [1, 6]: 1 (16.67) n (%) | Subjects with drug-related adverse event: Dizziness [1, 6]: 1 (16.67) n (%) | Subjects with drug-related adverse event: Fatigue [1, 6]: 0 n (%) | Subjects with drug-related adverse event: Feces soft [1, 6]: 0 n (%) | Subjects with drug-related adverse event: Headache [1, 6]: 1 (16.67) n (%) | Subjects with drug-related adverse event: Lethargy [1, 6]: 0 n (%) | Subjects with drug-related adverse event: Muscle spasms [1, 6]: 0 n (%) | Subjects with drug-related adverse event: Nausea [1, 6]: 1 (16.67) n (%) | Subjects with drug-related adverse event: Productive cough [1, 6]: 0 n (%) | Subjects with drug-related adverse event: Throat tightness [1, 6]: 0 n (%) | No. of subjects with treatment‐emergent adverse events attributed to study drug [1, 7]: 2 (33.33) n (%) | Subjects with drug-related adverse event: Cough [1, 7]: 0 n (%) | Subjects with drug-related adverse event: Diarrhea [1, 7]: 0 n (%) | Subjects with drug-related adverse event: Dizziness [1, 7]: 0 n (%) | Subjects with drug-related adverse event: Fatigue [1, 7]: 0 n (%) | Subjects with drug-related adverse event: Feces soft [1, 7]: 0 n (%) | Subjects with drug-related adverse event: Headache [1, 7]: 1 (16.67) n (%) | Subjects with drug-related adverse event: Lethargy [1, 7]: 0 n (%) | Subjects with drug-related adverse event: Muscle spasms [1, 7]: 0 n (%) | Subjects with drug-related adverse event: Nausea [1, 7]: 1 (16.67) n (%) | Subjects with drug-related adverse event: Productive cough [1, 7]: 0 n (%) | Subjects with drug-related adverse event: Throat tightness [1, 7]: 0 n (%) | No. of subjects with treatment‐emergent adverse events attributed to study drug [1, 8]: 0 n (%) | Subjects with drug-related adverse event: Cough [1, 8]: 0 n (%) | Subjects with drug-related adverse event: Diarrhea [1, 8]: 0 n (%) | Subjects with drug-related adverse event: Dizziness [1, 8]: 0 n (%) | Subjects with drug-related adverse event: Fatigue [1, 8]: 0 n (%) | Subjects with drug-related adverse event: Feces soft [1, 8]: 0 n (%) | Subjects with drug-related adverse event: Headache [1, 8]: 0 n (%) | Subjects with drug-related adverse event: Lethargy [1, 8]: 0 n (%) | Subjects with drug-related adverse event: Muscle spasms [1, 8]: 0 n (%) | Subjects with drug-related adverse event: Nausea [1, 8]: 0 n (%) | Subjects with drug-related adverse event: Productive cough [1, 8]: 0 n (%) | Subjects with drug-related adverse event: Throat tightness [1, 8]: 0 n (%) | Deaths or serious adverse events ([1]; all cohorts): no deaths or serious adverse events | Changes in lung function ([1]; healthy subjects): No clinically significant changes in lung function | Tolerability ([1]; single doses up to 10 mg and 5 mg daily for 7 days in healthy subjects, single 5 mg in mild asthma): well tolerated | Acute bronchospasm or significant change in lung function (>15% change from baseline) ([1]; subjects with mild asthma, single 5 mg): no evidence of acute bronchospasm or significant change in lung function | Irritancy ([1]; subjects with mild asthma, single dose 5 mg): No evidence of irritancy | Geometric mean minimum inhibitory concentration (MIC) (A. fumigatus strains): 0.17 µg/mL | MIC50 (A. fumigatus strains): 0.125 µg/mL (≈ 0.183 µM) | MIC90 (A. fumigatus strains): 1.0 µg/mL and 1 µg/mL | Ro (accumulation ratio) ([2]; female rats, 2.0 mg/kg/day): 1.84 | Ro (accumulation ratio) ([2]; female rats, 16.6 mg/kg/day): 2.53 | AUC0‐24h [2, 9]: 336 ng·h/mL | C max [2, 9]: 19.2 ng/mL | AUC0‐24h [2, 10]: 749 ng·h/mL | C max [2, 10]: 50.4 ng/mL | AUC0‐24h [2, 11]: 1850 ng·h/mL | C max [2, 11]: 92.3 ng/mL | AUC0‐24h [2, 12]: 183 ng·h/mL | C max [2, 12]: 10.5 ng/mL | AUC0‐24h [2, 13]: 416 ng·h/mL | C max [2, 13]: 24.8 ng/mL | AUC0‐24h [2, 14]: 731 ng·h/mL | C max [2, 14]: 41.3 ng/mL | Ro (accumulation ratio) ([2]; male rats, 2.0 mg/kg/day): 1.96 | AUC0‐24h [2, 15]: 202 ng·h/mL | C max [2, 15]: 12.3 ng/mL | AUC0‐24h [2, 16]: 424 ng·h/mL | C max [2, 16]: 23.7 ng/mL | AUC0‐24h [2, 17]: 1140 ng·h/mL | C max [2, 17]: 76.9 ng/mL | AUC0‐24h [2, 18]: 103 ng·h/mL | C max [2, 18]: 7.3 ng/mL | AUC0‐24h [2, 19]: 217 ng·h/mL | C max [2, 19]: 15.8 ng/mL | AUC0‐24h [2, 20]: 426 ng·h/mL | C max [2, 20]: 26.0 ng/mL | Margin over the clinical AUC following a 5 mg dose ([2]; rat, highest dose tested): 12 fold | Time of C max after a single dose ([2]; rats, after the 2-hour inhalation): 4 h | Systemic toxicity ([2]; rats, highest dose tested): No systemic toxicity | Time of C max after the start of dosing ([2]; rats, single 2-hour inhaled dose (Day 1)): 6 h
